Consider 18 compounds from patent US20250235460A1, “COMBINATION THERAPY USING GLUCOSE-DEPENDENT INSULINOTROPIC POLYPEPTIDE RECEPTOR ANTAGONIST COMPOUNDS AND GLP-1 RECEPTOR AGONIST COMPOUNDS” (Pfizer Inc., priority 2024, published 2025).

Usually EC50 stands for the concentration that produces a half-maximal response. Low values mean a more potent agent, high ones a less potent agent. Usually Emax stands for the maximal effect, on the per cent scale that the assay sets.

Assay [1] has as its target human GLP-1R (Homo sapiens, UniProt P43220, G168S). The assay can be described thus: CHO GLP-1R Clone H6 cAMP HTRF agonist assay (Assay 1, high receptor density). The format is cell-based. As to conditions: for EC50: CHO GLP-1R clone H6, cAMP HTRF, geometric mean; for Emax: CHO GLP-1R clone H6, arithmetic mean, relative to saturating GLP-1 (1 μM), read-out: Assay 1 Emax (%). The method, boiled down: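 Two significant figures are used throughout. Each EC50 is the geometric mean of its replicates, and each Emax is the arithmetic mean.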

Assay [2] has as its target human GLP-1R (Homo sapiens, UniProt P43220, L260F). The assay is described as follows: CHO GLP-1R Clone C6 cAMP HTRF agonist assay (Assay 2, low receptor density). Type of assay: cell-based. As to conditions: for EC50: CHO GLP-1R clone C6, cAMP HTRF, geometric mean; for Emax: CHO GLP-1R clone C6, arithmetic mean, relative to saturating GLP-1 (1 μM). From the text:
In Table 5 and Table 6, assay data are presented to two (2) significant figures as the geometric mean (EC50s) and arithmetic mean (Emax) based on the number of replicates listed (Number). A blank cell means there was no data for that Example or the Emax was not calculated.
(In TR-FRET formats the signal depends on donor and acceptor labels being close together.)

human GLP-1R (Homo sapiens, UniProt P43220, L260F), sequence (P43220 24-463 L260F): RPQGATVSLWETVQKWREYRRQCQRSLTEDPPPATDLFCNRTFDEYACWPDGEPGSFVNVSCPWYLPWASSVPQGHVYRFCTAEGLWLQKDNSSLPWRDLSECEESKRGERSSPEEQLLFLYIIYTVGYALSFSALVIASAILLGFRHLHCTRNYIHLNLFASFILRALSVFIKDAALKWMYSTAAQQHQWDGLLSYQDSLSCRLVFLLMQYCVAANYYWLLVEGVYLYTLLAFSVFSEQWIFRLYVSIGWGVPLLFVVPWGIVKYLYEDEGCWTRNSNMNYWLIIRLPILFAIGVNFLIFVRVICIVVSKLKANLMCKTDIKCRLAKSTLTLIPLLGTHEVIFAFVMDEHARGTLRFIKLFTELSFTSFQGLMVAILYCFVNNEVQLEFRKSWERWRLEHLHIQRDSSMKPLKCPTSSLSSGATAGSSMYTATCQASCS
human GLP-1R (Homo sapiens, UniProt P43220, G168S), sequence (P43220 24-463 G168S): as the sequence (P43220 24-463 L260F) above, with G145S, F237L counted along it

As to `COCCn1c(CN2CCN(c3cccc(OCc4ccc(Cl)cc4F)n3)[C@H](C)C2)nc2ccc(C(=O)O)cc21` [Compound 184B, 2-{[(3R)-4-{6-[(4-chloro-2-fluorobenzyl)oxy]pyridin-2-yl}-3-methylpiperazin-1-yl]methyl}-1-(2-methoxyethyl)-1H-benzimidazole-6-carboxylic acid], in assay [1], a half-maximal effect (EC50) was put at 3.2 nM and the Emax stood at 77%. In assay [2], this compound had an EC50 of 43 nM and an Emax of 84%.

On to `COCCn1c(CN2CCN(c3cccc(OCc4ccc(Cl)cc4F)n3)CC2(C)C)nc2ccc(C(=O)O)cc21` [Compound 352B, 2-[(4-{6-[(4-chloro-2-fluorobenzyl)oxy]pyridin-2-yl}-2,2-dimethylpiperazin-1-yl)methyl]-1-(2-methoxyethyl)-1H-benzimidazole-6-carboxylic acid], for which, in assay [1], the EC50 is 46 nM and the Emax was 66%. In assay [2], this compound showed an EC50 of 1400 nM and an Emax of 83%.

Regarding `N#Cc1ccc(COc2cccc(N3CCN(Cc4nc5ccc(C(=O)O)cc5n4C[C@@H]4CCO4)CC3)n2)c(F)c1` [Compound 108B, 2-[(4-{6-[(4-cyano-2-fluorobenzyl)oxy]pyridin-2-yl}piperazin-1-yl)methyl]-1-[(2S)-oxetan-2-ylmethyl]-1H-benzimidazole-6-carboxylic acid], the EC50 was 16 nM in assay [1] and 320 nM in assay [2]. The Emax in assay [1] was 85%; in assay [2] it was 88%.

`COCCn1c(CN2CC[C@H](c3cccc(OCc4ccc(Cl)cc4F)n3)C[C@H]2C)nc2ccc(C(=O)O)cc21` (relative stereo) [Compound 357B, trans 2-{[4-{6-[(4-Chloro-2-fluorobenzyl)oxy]pyridin-2-yl}-2-methylpiperidin-1-yl]methyl}-1-(2-methoxyethyl)-1H-benzimidazole-6-carboxylic acid]: in assay [1], it took 28 nM to reach a half-maximal effect (EC50) and the Emax turned out to be 82%. In assay [2], this compound yielded a 50% effective concentration (EC50) of 350 nM and an Emax of 70%.

Turning to `COCC1(Cn2c(CN3CCC(c4cccc(OCc5ccc(Cl)cc5F)n4)CC3)nc3ccc(C(=O)O)cc32)CCC1` [Compound 347B, 2-[(4-{6-[(4-chloro-2-fluorobenzyl)oxy]pyridin-2-yl}piperidin-1-yl)methyl]-1-{[1-(methoxymethyl)cyclobutyl]methyl}-1H-benzimidazole-6-carboxylic acid], in assay [1], the midpoint of the response, the EC50, lay at 6.9 nM and the Emax worked out at 78%. In assay [2], this compound returned an EC50 of 170 nM and an Emax of 96%.

Take `O=C(O)c1ccc2nc(CN3CCC(c4cccc(OCc5ccc(Cl)cc5F)n4)CC3)n(Cc3n[nH]c(C4CC4)n3)c2c1` [Compound 339B, 2-[(4-{6-[(4-chloro-2-fluorobenzyl)oxy]pyridin-2-yl}piperidin-1-yl)methyl]-1-[(5-cyclopropyl-1H-1,2,4-triazol-3-yl)methyl]-1H-benzimidazole-6-carboxylic acid]: in assay [1], the EC50 stood at 36 nM and the Emax was 71%. Also, in assay [2], the response was half-maximal at 1600 nM (EC50) and the Emax was 82%.

For `CN(C)CCn1c(CN2CCC(c3cccc(OCc4ccc(Cl)cc4F)n3)CC2)nc2ccc(C(=O)O)cc21` [Compound 238B, 2-[(4-{6-[(4-chloro-2-fluorobenzyl)oxy]pyridin-2-yl}piperidin-1-yl)methyl]-1-[2-(dimethylamino)ethyl]-1H-benzimidazole-6-carboxylic acid], in assay [1], a half-maximal response (EC50) required 0.71 nM and the Emax was found to be 81%. Besides, in assay [2], a half-maximal effect (EC50) was put at 11 nM and the Emax worked out at 100%.

For the compound `O=C(O)c1ccc2nc(CN3CCC(c4cccc(OCc5ccc(Cl)cc5F)n4)CC3)n(Cc3ccon3)c2c1` [Compound 344B, 2-[(4-{6-[(4-chloro-2-fluorobenzyl)oxy]pyridin-2-yl}piperidin-1-yl)methyl]-1-(1,2-oxazol-3-ylmethyl)-1H-benzimidazole-6-carboxylic acid], in assay [1], the EC50 stood at 37 nM and the Emax is 69%. In assay [2], this compound registered an EC50 of 1200 nM and an Emax of 83%.

Turning to `N#Cc1ccc(COc2cccc(C3CCN(Cc4nc5ccc(C(=O)O)cc5n4C[C@H]4CCCO4)CC3)n2)cc1` [Compound 132B, 2-[(4-{6-[(4-cyanobenzyl)oxy]pyridin-2-yl}piperidin-1-yl)methyl]-1-[(2R)-tetrahydrofuran-2-ylmethyl]-1H-benzimidazole-6-carboxylic acid], in assay [1], the EC50 is 70 nM and the maximum response (Emax) was 80%. In assay [2], this compound displayed an EC50 of 1800 nM and a maximum response (Emax) of 85%.

Consider `O=C(O)c1cc2c(cn1)nc(CN1CCC(c3cccc(OCc4ccc(Cl)cc4F)n3)CC1)n2Cc1ncco1` [Compound 204B, 2-[(4-{6-[(4-chloro-2-fluorobenzyl)oxy]pyridin-2-yl}piperidin-1-yl)methyl]-1-(1,3-oxazol-2-ylmethyl)-1H-imidazo[4,5-c]pyridine-6-carboxylic acid], for which the EC50 in assay [1] stood at 18 nM; in assay [2], 400 nM. In addition, the Emax in assay [1] is 88%; in assay [2], 100%.

Turning to `COC1CCN(CCn2c(CN3CCC(c4cccc(OCc5ccc(Cl)cc5F)n4)CC3)nc3ccc(C(=O)O)cc32)CC1` [Compound 331B, 2-[(4-{6-[(4-chloro-2-fluorobenzyl)oxy]pyridin-2-yl}piperidin-1-yl)methyl]-1-[2-(4-methoxypiperidin-1-yl)ethyl]-1H-benzimidazole-6-carboxylic acid], the results for the EC50 in assay [1] and in assay [2] were 63 nM and 2000 nM, respectively. For the same compound, the Emax was 78% in assay [1] and 82% in assay [2].

As to `COCCn1c(CN2CC[C@H](c3cccc(OCc4ccc(Cl)cc4F)n3)[C@@H](C)C2)nc2ccc(C(=O)O)cc21` (racemic) [Compound 193B, rac-2-{[(3S,4R)-4-{6-[(4-chloro-2-fluorobenzyl)oxy]pyridin-2-yl}-3-methylpiperidin-1-yl]methyl}-1-(2-methoxyethyl)-1H-benzimidazole-6-carboxylic acid], in assay [1], the EC50 came to 0.3 nM. Also, in assay [2], the EC50 turned out to be 4.1 nM and the Emax was 100%.

On to `COCCn1c(CN2CC[C@@H](c3cccc(OCc4ccc(Cl)cc4F)n3)C[C@H]2C)nc2ccc(C(=O)O)cc21` (relative stereo) [Compound 358B, cis 2-{[4-{6-[(4-Chloro-2-fluorobenzyl)oxy]pyridin-2-yl}-2-methylpiperidin-1-yl]methyl}-1-(2-methoxyethyl)-1H-benzimidazole-6-carboxylic acid], for which the concentration for a half-maximal effect (EC50) in assay [1] was found to be 4.2 nM; in assay [2], 77 nM. Moreover, the results for the Emax in assay [1] and in assay [2] were 69% and 75%, respectively.

Consider `COCCn1c(CN2CCN(c3cccc(OCc4ccc(Cl)cc4F)n3)C[C@@H]2C)nc2ccc(C(=O)O)cc21` [Compound 355B, 2-{[(2S)-4-{6-[(4-chloro-2-fluorobenzyl)oxy]pyridin-2-yl}-2-methylpiperazin-1-yl]methyl}-1-(2-methoxyethyl)-1H-benzimidazole-6-carboxylic acid], for which the EC50 in assay [1] turned out to be 6.3 nM; in assay [2], 110 nM. In addition, the Emax in assay [1] worked out at 83%; in assay [2] it was 87%.

`CO[C@H]1C[C@@H](Cn2c(CN3CCC(c4cccc(OCc5ccc(Cl)cc5F)n4)CC3)nc3ccc(C(=O)O)cc32)C1` [Compound 195B, 2-[(4-{6-[(4-chloro-2-fluorobenzyl)oxy]pyridin-2-yl}piperidin-1-yl)methyl]-1-[(cis-3-methoxycyclobutyl)methyl]-1H-benzimidazole-6-carboxylic acid]: in assay [1], the midpoint of the response, the EC50, lay at 110 nM and the maximal effect (Emax) worked out at 68%. In assay [2], this compound had an EC50 of 4400 nM and a maximal response (Emax) of 110%.

Turning to `O=C(O)c1ccc2nc(CN3CCN(c4cccc(OCc5ccc(Cl)cc5F)n4)CC3)n(Cc3ncco3)c2c1` [Compound 151B, 2-[(4-{6-[(4-chloro-2-fluorobenzyl)oxy]pyridin-2-yl}piperazin-1-yl)methyl]-1-(1,3-oxazol-2-ylmethyl)-1H-benzimidazole-6-carboxylic acid], in assay [1], the EC50 amounted to 22 nM and the Emax amounted to 87%. For the same compound, the EC50 in assay [2] is 280 nM.

For `O=C(O)c1ccc2nc(CN3CCC(c4cccc(OCc5ccc(Cl)cc5F)n4)CC3)n(Cc3cc[nH]n3)c2c1` [Compound 299B, 2-[(4-{6-[(4-chloro-2-fluorobenzyl)oxy]pyridin-2-yl}piperidin-1-yl)methyl]-1-(1H-pyrazol-3-ylmethyl)-1H-benzimidazole-6-carboxylic acid], in assay [1], the EC50 stood at 110 nM and the Emax worked out at 79%. The same compound came in with a concentration giving a half-maximal response (EC50) in assay [2] of 2200 nM.

In the case of `N#Cc1ccc(COc2cccc(C3CCN(Cc4nc5ccc(C(=O)O)cc5n4CC4CCCO4)CC3)n2)cc1` (stereo not drawn) [Compound 359B, 2-[(4-{6-[(4-cyanobenzyl)oxy]pyridin-2-yl}piperidin-1-yl)methyl]-1-(tetrahydrofuran-2-ylmethyl)-1H-benzimidazole-6-carboxylic acid], the EC50 in assay [1] turned out to be 1.9 nM; in assay [2], 55 nM. In addition, the figures for the Emax in assay [1] and in assay [2] were 63% and 75%, respectively.
